In the supplement of paper PMC10627819:

Legend:
[1] = test system: B. subtilis 168; assay: fitness (endpoint OD595 vs no drug) (fraction); higher = more growth
How it was run: (§1)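 Plates with 384 wells were inoculated at OD595 0.01 using 30 µl of TSB, LB Lennox or CY, or 55 µl for S. pneumoniae. Incubation was at 37 °C, with OD595 measured every 30 min for 14 h. Fitness is the stationary-phase transition optical density over the robust mean of no-drug control wells, after first-reading background subtraction; it is capped at 1.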

[2] = test system: S. aureus DSM 20231; assay: as above
How it was run: as §1

[3] = test system: S. pneumoniae D39V; assay: as above
How it was run: as §1

[4] = test system: S. aureus Newman; assay: Bliss interaction score (quartile over a dose matrix) (fitness difference); higher = more antagonism (negative = synergy)
How it was run: (§2)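 Each plate was normalised to the robust mean of its own no-drug wells, using OD595 at entry into stationary phase, with values capped at 1. This normalised growth is the fitness value. The Bliss score is the difference between observed and product-expected fitness, with single-drug fitness inferred from the combination data and quartiles taken over technical, biological and donor/recipient replicates.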

[5] = test system: B. subtilis 168; assay: as above
How it was run: as §2

[6] = test system: S. aureus DSM 20231; assay: as above
How it was run: as §2

[7] = test system: S. pneumoniae D39V; assay: as above
How it was run: as §2

[8] = test system: S. aureus Newman; assay: fitness (endpoint OD595 vs no drug) (fraction); higher = more growth
How it was run: as §1
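Wherever Bliss interaction score (quartile over a dose matrix) is given: first quartile when negative (synergy) and third quartile when positive (antagonism).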

CC(=O)NC[C@H]1CN(c2ccc(N3CCOCC3)c(F)c2)C(=O)O1 [Linezolid] + Cc1onc(-c2ccccc2)c1C(=O)N[C@@H]1C(=O)N2[C@@H]1SC(C)(C)[C@@H]2C(=O)O [Oxacillin]
one replicate
Settings | fitness
[1], first compound 0.0625 µg/mL, partner 0.0078 µg/mL | 0.913
[1], first compound 0.0625 µg/mL, partner 0.0155 µg/mL | 0.809
[1], first compound 0.0625 µg/mL, partner 0.031 µg/mL | 0.81
[1], first compound 0.125 µg/mL, partner 0.0078 µg/mL | 0.594
[1], first compound 0.125 µg/mL, partner 0.0155 µg/mL | 0.553
[1], first compound 0.125 µg/mL, partner 0.031 µg/mL | 0.529
[1], first compound 0.125 µg/mL, partner 0.075 µg/mL | 0.611
[1], first compound 0.125 µg/mL, partner 0.15 µg/mL | 0.0387
[1], first compound 0.125 µg/mL, partner 0.3 µg/mL | 0.0501
[1], first compound 0.25 µg/mL, partner 0.0078 µg/mL | 0.0705
[1], first compound 0.25 µg/mL, partner 0.0155 µg/mL | 0.0604
[1], first compound 0.25 µg/mL, partner 0.031 µg/mL | 0.0611
[1], first compound 0.25 µg/mL, partner 0.075 µg/mL | 0.241
[1], first compound 0.25 µg/mL, partner 0.15 µg/mL | 0.0531
[1], first compound 0.25 µg/mL, partner 0.3 µg/mL | 0.0536
[1], first compound 0.5 µg/mL, partner 0.075 µg/mL | 0.0447
[1], first compound 0.5 µg/mL, partner 0.15 µg/mL | 0.0563
[1], first compound 0.5 µg/mL, partner 0.3 µg/mL | 0.0594
[2], first compound 1 µg/mL, partner 0.0156 µg/mL | 0.0486
[2], first compound 1 µg/mL, partner 0.0312 µg/mL | 0.0427
[2], first compound 1 µg/mL, partner 0.0625 µg/mL | 0.0557

Settings | fitness
[1], first compound 0.125 µg/mL, partner 0.002 µg/mL | 0.567
[1], first compound 0.125 µg/mL, partner 0.004 µg/mL | 0.513
[1], first compound 0.125 µg/mL, partner 0.008 µg/mL | 0.515
[1], first compound 0.25 µg/mL, partner 0.002 µg/mL | 0.112
[1], first compound 0.25 µg/mL, partner 0.004 µg/mL | 0.108
[1], first compound 0.25 µg/mL, partner 0.008 µg/mL | 0.102
[1], first compound 0.5 µg/mL, partner 0.002 µg/mL | 0.0413
[1], first compound 0.5 µg/mL, partner 0.004 µg/mL | 0.0471
[1], first compound 0.5 µg/mL, partner 0.008 µg/mL | 0.0549
[2], first compound 0.125 µg/mL, partner 0.0156 µg/mL | 0.791
[2], first compound 0.125 µg/mL, partner 0.0312 µg/mL | 0.665
[2], first compound 0.125 µg/mL, partner 0.0625 µg/mL | 0.52
[2], first compound 0.25 µg/mL, partner 0.0156 µg/mL | 0.52
[2], first compound 0.25 µg/mL, partner 0.0312 µg/mL | 0.501
[2], first compound 0.25 µg/mL, partner 0.0625 µg/mL | 0.415
[2], first compound 0.5 µg/mL, partner 0.0156 µg/mL | 0.21
[2], first compound 0.5 µg/mL, partner 0.0312 µg/mL | 0.188
[2], first compound 0.5 µg/mL, partner 0.0625 µg/mL | 0.156
[3], first compound 0.105 µg/mL, partner 0.01 µg/mL | 0.917
[3], first compound 0.105 µg/mL, partner 0.02 µg/mL | 0.872
[3], first compound 0.105 µg/mL, partner 0.04 µg/mL | 0.42
[3], first compound 0.2 µg/mL, partner 0.01 µg/mL | 0.78
[3], first compound 0.2 µg/mL, partner 0.02 µg/mL | 0.764
[3], first compound 0.2 µg/mL, partner 0.04 µg/mL | 0.594
[3], first compound 0.21 µg/mL, partner 0.01 µg/mL | 0.791
[3], first compound 0.21 µg/mL, partner 0.02 µg/mL | 0.704
[3], first compound 0.21 µg/mL, partner 0.04 µg/mL | 0.382
[3], first compound 0.4 µg/mL, partner 0.01 µg/mL | 0.623
[3], first compound 0.4 µg/mL, partner 0.02 µg/mL | 0.609
[3], first compound 0.4 µg/mL, partner 0.04 µg/mL | 0.431
[3], first compound 0.42 µg/mL, partner 0.01 µg/mL | 0.63
[3], first compound 0.42 µg/mL, partner 0.02 µg/mL | 0.564
[3], first compound 0.42 µg/mL, partner 0.04 µg/mL | 0.175
[3], first compound 0.8 µg/mL, partner 0.04 µg/mL | 0.218

Settings | Bliss interaction score
[4] | -0.0461
[5] | 0.0403
[6] | -0.0365
[7] | 0.136

CC(=O)NC[C@H]1CN(c2ccc(N3CCOCC3)c(F)c2)C(=O)O1 [Linezolid] + Cn1nnc(-c2ccc(-c3ccc(N4C[C@H](CO)OC4=O)cc3F)cn2)n1 [Tedizolid]
fitness
Settings | partner 0.03125 µg/mL | partner 0.0625 µg/mL | partner 0.125 µg/mL | partner 0.25 µg/mL | partner 0.5 µg/mL
[2], first compound 0.125 µg/mL | – | 0.689 | 0.501 | 0.257 | –
[2], first compound 0.25 µg/mL | – | 0.456 | 0.26 | 0.141 | –
[2], first compound 0.5 µg/mL | – | 0.119 | 0.0888 | 0.0646 | –
[3], first compound 0.105 µg/mL | – | – | 0.682 | 0.441 | 0.141
[3], first compound 0.2 µg/mL | 0.819 | 0.825 | 0.723 | – | –
[3], first compound 0.21 µg/mL | – | – | 0.58 | 0.286 | 0.0818
[3], first compound 0.4 µg/mL | 0.73 | 0.724 | 0.633 | – | –
[3], first compound 0.42 µg/mL | – | – | 0.249 | 0.107 | 0.0451
[3], first compound 0.8 µg/mL | 0.549 | 0.578 | 0.465 | – | –

[2], first compound 1 µg/mL, one replicate
Settings | fitness
partner 0.0625 µg/mL | 0.0257
partner 0.125 µg/mL | 0.0309
partner 0.25 µg/mL | 0.0295

Settings | Bliss interaction score
[4] | -0.153
[5] | -0.188
[6] | -0.185
[7] | -0.148

CN[C@@H]1[C@H](O)[C@H](NC)[C@H]2O[C@@]3(O)C(=O)C[C@@H](C)O[C@H]3O[C@@H]2[C@H]1O [Spectinomycin] + COc1cc(Cc2cnc(N)nc2N)cc(OC)c1OC [Trimethoprim]
fitness, one replicate
Settings | first compound 2 µg/mL | first compound 4 µg/mL | first compound 8 µg/mL | first compound 32 µg/mL | first compound 64 µg/mL
[1], partner 0.1 µg/mL | 0.871 | 0.821 | 0.686 | – | –
[1], partner 0.125 µg/mL | 0.707 | 0.606 | 0.414 | – | –
[1], partner 0.2 µg/mL | 0.781 | 0.762 | 0.386 | – | –
[1], partner 0.4 µg/mL | 0.473 | 0.556 | 0.223 | – | –
[1], partner 1 µg/mL | 0.508 | 0.338 | 0.167 | – | –
[1], partner 2 µg/mL | 0.408 | 0.187 | 0.0702 | – | –
[2], partner 0.125 µg/mL | – | 0.808 | 0.822 | 0.629 | 0.026
[2], partner 0.25 µg/mL | – | – | – | 0.573 | 0.0208
[2], partner 0.5 µg/mL | – | – | – | 0.299 | 0.0374

fitness
Settings | first compound 4 µg/mL | first compound 8 µg/mL | first compound 16 µg/mL
[1], partner 0.25 µg/mL | – | 0.482 | –
[1], partner 0.5 µg/mL | 0.496 | 0.308 | –
[2], partner 0.125 µg/mL | – | – | 0.654
[2], partner 0.25 µg/mL | 0.598 | 0.593 | 0.649
[2], partner 1 µg/mL | 0.0368 | 0.0298 | 0.0188

Settings | Bliss interaction score
[4] | 0.0863
[5] | -0.0925
[6] | 0.0932
[7] | -0.161

CN[C@@H]1[C@H](O[C@H]2[C@H](O[C@H]3[C@H](O)[C@@H](O)[C@H](N=C(N)N)[C@@H](O)[C@@H]3N=C(N)N)O[C@@H](C)[C@]2(O)C=O)O[C@@H](CO)[C@H](O)[C@H]1O [Streptomycin] + CN(N=O)C(=O)N[C@@H](C=O)[C@@H](O)[C@H](O)[C@H](O)CO [Streptozotocin]
fitness
Settings | first compound 1 µg/mL | first compound 2 µg/mL | first compound 4 µg/mL | first compound 8 µg/mL
[1], partner 0.15 µg/mL | – | 0.954 | 0.308 | 0.0987
[1], partner 0.3 µg/mL | – | 0.978 | 0.332 | 0.0267
[1], partner 0.6 µg/mL | – | 0.98 | 0.266 | 0.0223
[3], partner 1.2 µg/mL | – | 0.988 | 0.975 | 0.896
[3], partner 2.4 µg/mL | – | 0.945 | 0.932 | 0.951
[3], partner 4.8 µg/mL | – | 0.954 | 0.958 | 0.903
[8], partner 0.15 µg/mL | 0.884 | 0.818 | – | –
[8], partner 0.3 µg/mL | 0.767 | 0.649 | – | –
[8], partner 0.6 µg/mL | 0.555 | 0.485 | 0.473 | –

[3], first compound 16 µg/mL, one replicate
Settings | fitness
partner 1.2 µg/mL | 0.744
partner 2.4 µg/mL | 0.773
partner 4.8 µg/mL | 0.782

Settings | Bliss interaction score
[4] | 0.0357
[5] | -0.134
[6] | -0.109
[7] | 0.062
